Laboratory results from patent US20240368104A1, “Novel Dialkoxynaphtho[2,3-C]Furan-1(3H)-One Derivatives and Pharmaceutical Composition For Preventing or Treating Respiratory Disease or SARS-COV-2 Infection Disease, Comprising Same” (priority 2021, published 2024).
Counter-ions that a name gives are not always drawn. Like-named read-outs stand apart in the source and are kept apart here.

Assays:
SARS-COV-2 = assay: microbe, parasite or virus in culture; type: cell-based; parameters: SI (Selectivity Index, CC50/IC50): unit not given here; settings: for SI (Selectivity Index, CC50/IC50): SARS-COV-2, values >50 assumed to be 50; for IC50: read-out: SARS-COV-2 inhibition (IC50)
in vitro = settings: African green monkey
[1] = Severe acute respiratory syndrome coronavirus 2, Vero, 24 h
[2] = Severe acute respiratory syndrome coronavirus 2, Vero cells, 24 hours infection

SMILES	SI (Selectivity Index, CC50/IC50) (SARS-COV-2)	IC50 (SARS-COV-2; [1]) [µM]	CC50 (in vitro) [µM]	IC50 (SARS-COV-2; [2]) [µM]
COc1cc2cc3c(c(-c4ccc(N(C)C(=O)c5ccc(Cl)nc5)nc4)c2cc1OC)C(=O)OC3.Cl [Example 234, 6-chloro-N-(5-(6,7-dimethoxy-3-oxo-1,3-dihydronaphtho[2,3-c]furan-4-yl)pyridin-2-yl)-N-methylnicotinamide]	1.00	> 50	> 50	
COc1cc2cc3c(c(-c4ccc(-n5nc(N(C)C)nc5SC)nc4)c2cc1OC)C(=O)OC3.Cl [Example 223, 9-(6-(3-(dimethylamino)-5-(methylthio)-1H-1,2,4-triazol-1-yl)pyridin-3-yl)-6,7-dimethoxynaphtho[2,3-c]furan-1(3H)-one]	3.11	16.1	> 50	
COc1cc2cc3c(c(-c4ccc(N5CC(C)CC(C)C5)nc4)c2cc1OC)C(=O)OC3 (stereo not drawn) [Example 127, 9-(6-(3,5-dimethylpiperidin-1-yl)pyridin-3-yl)-6,7-dimethoxynaphtho[2,3-c]furan-1(3H)-one]	45.29		> 50	1.1
COc1cc2cccc(-c3c4c(cc5cc(OC)c(OC)cc35)COC4=O)c2cn1 [Example 133, 6,7-dimethoxy-9-(3-methoxyisoquinolin-8-yl)naphtho[2,3-c]furan-1(3H)-one]	1.0		> 50	> 50
COc1cc2cc3c(c(-c4ccnc5ccc(F)cc45)c2cc1OC)C(=O)OC3 [Example 148, 9-(6-fluoroquinolin-4-yl)-6,7-dimethoxynaphtho[2,3-c]furan-1(3H)-one]	1.0		> 50	> 50
COc1cc2cc3c(c(-c4ccc(N5CCCCC5)nc4)c2cc1OC)C(=O)OC3 [Example 123, 6,7-dimethoxy-9-(6-(piperidin-1-yl)pyridin-3-yl)naphtho[2,3-c]furan-1(3H)-one]	145.26		> 50	0.34
COC(=O)CN(C)c1ncc(-c2c3c(cc4cc(OC)c(OC)cc24)COC3=O)cn1.Cl [Example 90, methyl N-(5-(6,7-dimethoxy-3-oxo-1,3-dihydronaphtho[2,3-c]furan-4-yl)pyrimidin-2-yl)-N-methyl glycinate hydrochloride]	16.96	2.95	> 50	
COc1cc2cc3c(c(N4CCN(c5ccc(Br)cn5)CC4)c2cc1OC)C(=O)OC3 [Example 129, 9-(4-(5-bromopyridin-2-yl)piperazin-1-yl)-6,7-dimethoxynaphtho[2,3-c]furan-1(3H)-one]	2.29		> 50	21.8
COc1cc2cc3c(c(-c4cnc(OC)c(-c5nc6ccccc6[nH]5)c4)c2cc1OC)C(=O)OC3 [Example 204, 9-(5-(1H-benzo[d]imidazol-2-yl)-6-methoxypyridin-3-yl)-6,7-dimethoxynaphtho[2,3-c]furan-1(3H)-one]	0.93	25.9	24.2	
COc1cc2cc3c(c(-c4cnc(N5CCOCC5)nc4)c2cc1OC)C(=O)OC3 [Example 51, 6,7-dimethoxy-9-(2-morpholinopyrimidin-5-yl)naphtho[2,3-c]furan-1(3H)-one]	34.12		> 50	1.47
COc1cc2cc3c(c(-c4cnc(N[C@@H](C)c5ccc(F)cc5)nc4)c2cc1OC)C(=O)OC3 [Example 55, (S)-9-(2-((1-(4-fluorophenyl)ethyl)amino)pyrimidin-5-yl)-6,7-dimethoxynaphtho[2,3-c]furan-1(3H)-one]	4.23		> 50	11.8
COc1cc2cc3c(c(-c4cnc(NC5CCCC5)nc4)c2cc1OC)C(=O)OC3.Cl [Example 91, 9-(2-(cyclopentylamino)pyrimidin-5-yl)-6,7-dimethoxynaphtho[2,3-c]furan-1(3H)-one hydrochloride]	5.15	9.7	> 50	
COc1cc2cc3c(c(-c4ccc(Cl)nc4)c2cc1OC)C(=O)OC3 [Example 185, 9-(6-chloropyridin-3-yl)-6,7-dimethoxynaphtho[2,3-c]furan-1(3H)-one]	149.26		> 50	0.33
CNc1ccc(-c2c3c(cc4cc(OC)c(OC)cc24)COC3=O)cn1 [Example 229, 6,7-dimethoxy-9-(6-(methylamino)pyridin-3-yl)naphtho[2,3-c]furan-1(3H)-one]	17.63		> 50	2.84
COc1ccc2c(-c3c4c(cc5cc(OC)c(OC)cc35)COC4=O)ccnc2c1 [Example 150, 6,7-dimethoxy-9-(7-methoxyquinolin-4-yl)naphtho[2,3-c]furan-1(3H)-one]	1.0		> 50	> 50
COCCN(C)c1ccc(-c2c3c(cc4cc(OC)c(OC)cc24)COC3=O)cc1 [Example 256, 6,7-dimethoxy-9-(4-((2-methoxyethyl)(methyl)amino)phenyl)naphtho[2,3-c]furan-1(3H)-one]	82.38		> 50	0.61
COc1cc2cc3c(c(N4CCN(c5cc(Cl)nc(SC)n5)CC4)c2cc1OC)C(=O)OC3 [Example 130, 9-(4-(6-chloro-2-(methylthio)pyrimidin-4-yl)pilerazin-1-yl)-6,7-dimethoxynaphtho[2,3-c]furan-1(3H)-one]	1.0		> 50	> 50
COc1cc2cc3c(c(-c4cnc(N(C)CC(OC)OC)nc4)c2cc1OC)C(=O)OC3 [Example 94, 9-(2-((2,2-dimethoxyethyl)(methyl)amino)pyrimidin-5-yl)-6,7-dimethoxynaphtho[2,3-c]furan-1(3H)-one]	10.16		> 50	4.92
CCN(c1ccc(-c2c3c(cc4cc(OC)c(OC)cc24)COC3=O)cn1)C(C)C [Example 182, 9-(6-(ethyl(isopropyl)amino)pyridin-3-yl)-6,7-dimethoxynaphtho[2,3-c]furan-1(3H)-one]	75.67		> 50	0.66
COc1cc2cc3c(c(-c4ccc(N5CCC(Cl)CC5)nc4)c2cc1OC)C(=O)OC3 [Example 142, 9-(6-(4-chloropiperidin-1-yl)pyridin-3-yl)-6,7-dimethoxynaphtho[2,3-c]furan-1(3H)-one]	25.00		> 50	2
CCN(C)c1ncc(-c2c3c(cc4cc(OC)c(OC)cc24)COC3=O)cn1 [Example 106, 9-(2-(ethyl(methyl)amino)pyrimidin-5-yl)-6,7-dimethoxynaphtho[2,3-c]furan-1(3H)-one hydrochloride]	297.58	0.17	> 50	
COc1cc2c(OC)c3c(c(-c4ccc(N(C)C5Cc6ccccc6C5)nc4)c2cc1OC)COC3=O.Cl [Example 268, 4-(6-((2,3-dihydro-1H-indan-2-yl)(methyl)amino)pyridin-3-yl)-6,7,9-trimethoxynaphtho[2,3-c]furan-1(3H)-one]	1.00	> 50	> 50	
COc1cc2cc3c(c(-c4ccc(N5C[C@@H](C)O[C@@H](C)C5)nc4)c2cc1OC)C(=O)OC3 [Example 121, 9-(6-((2S,6R)-2,6-dimethylmorpholino)pyridin-3-yl)-6,7-dimethoxynaphtho[2,3-c]furan-1(3H)-one]	21.51		> 50	2.32
COc1cc2cc3c(c(-c4ccc5c(c4)N(C)CCC5)c2cc1OC)C(=O)OC3 [Example 170, 6,7-dimethoxy-9-(1-methyl-1,2,3,4-tetrahydroquinolin-7-yl)naphtho[2,3-c]furan-1(3H)-one]	24.25		> 50	2.06
CNc1ccc(-c2c3c(cc4cc(OC)c(OC)cc24)COC3=O)cc1 [Example 246, 6,7-dimethoxy-9-(4-(methylamino)phenyl)naphtho[2,3-c]furan-1(3H)-one]	15.18		> 50	3.29
COc1cc2cc3c(c(-c4ccc(N5CCCC5)cc4)c2cc1OC)C(=O)OC3 [Example 251, 6,7-dimethoxy-9-(4-(pyrrolidin-1-yl)phenyl)naphtho[2,3-c]furan-1(3H)-one]	119.39		> 50	0.42
COc1cc2cc3c(c(-c4ccc(N5CCC6(CC5)OCCO6)nc4)c2cc1OC)C(=O)OC3 [Example 166, 9-(6-(1,4-dioxa-8-azaspiro[4.5]decan-8-yl)pyridin-3-yl)-6,7-dimethoxynaphtho[2,3-c]furan-1(3H)-one]	18.50		> 50	2.7
COc1cc2cc3c(c(-c4ccc(N(C)C(C)=O)nc4)c2cc1OC)C(=O)OC3 [Example 230, N-(5-(6,7-dimethoxy-3-oxo-1,3-dihydronaphtho[2,3-c]furan-4-yl)pyridin-2-yl)-N-methylacetamide]	2.45		> 50	20.4
COc1ncc(-c2c3c(cc4cc(OC)c(OC)cc24)COC3=O)cn1 [Example 26, 6,7-dimethoxy-9-(2-methoxypyrimidin-5-yl)naphtho[2,3-c]furan-1(3H)-one]	9.52		> 50	5.25
CCC(C)N(C)c1ncc(-c2c3c(cc4cc(OC)c(OC)cc24)COC3=O)cn1.Cl (stereo not drawn) [Example 100, 9-(2-(sec-butyl(methyl)amino)pyrimidin-5-yl)-6,7-dimethoxynaphtho[2,3-c]furan-1(3H)-one hydrochloride]	96.21	0.52	> 50	
